Assay results taken from US20080261994A1, “CYCLOPROPANE COMPOUNDS AND PHARMACEUTICAL USE THEREOF” (Japan Tobacco Inc., priority 2003, published 2008).

Assays:
Format in all cases: biochemical
[1] = biological target: T1, aggrecanase-1 (Homo sapiens, UniProt O75173); assay: Aggrecanase-1 inhibitory action (Particle Assay, GAG release from aggrecan-containing polyacrylamide particles); conditions: Experimental Example 1; read-out: IC50 AG1
T1 sequence (O75173 213-837): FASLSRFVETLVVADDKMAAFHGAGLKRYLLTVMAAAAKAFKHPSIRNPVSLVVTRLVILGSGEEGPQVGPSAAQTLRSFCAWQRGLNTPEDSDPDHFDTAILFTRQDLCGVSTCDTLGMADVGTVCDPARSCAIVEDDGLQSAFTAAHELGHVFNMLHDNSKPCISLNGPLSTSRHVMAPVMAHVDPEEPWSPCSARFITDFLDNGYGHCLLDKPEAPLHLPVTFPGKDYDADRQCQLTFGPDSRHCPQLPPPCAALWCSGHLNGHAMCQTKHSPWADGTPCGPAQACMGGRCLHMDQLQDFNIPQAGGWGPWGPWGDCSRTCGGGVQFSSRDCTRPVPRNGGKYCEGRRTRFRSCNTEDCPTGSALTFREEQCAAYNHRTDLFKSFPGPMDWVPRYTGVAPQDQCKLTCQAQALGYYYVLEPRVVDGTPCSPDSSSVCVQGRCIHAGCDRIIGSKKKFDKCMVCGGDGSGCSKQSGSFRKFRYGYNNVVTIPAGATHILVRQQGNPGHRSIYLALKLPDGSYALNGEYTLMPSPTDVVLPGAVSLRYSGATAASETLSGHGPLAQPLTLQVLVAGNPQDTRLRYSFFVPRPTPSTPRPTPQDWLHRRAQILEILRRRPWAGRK
Summary of the method: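 Enzyme and compound incubated with aggrecan-containing polyacrylamide particles in Tris-HCl buffer at 37° C for 15 h. Released GAG in supernatant measured with 1,9-dimethylmethylene blue at 595 nm against chondroitin sulfate standard; % inhibition from enzyme-free and inhibitor-free wells, reported as TC50 (μM).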

[2] = biological target: T2, MMP-1 (Homo sapiens, UniProt P03956); assay: MMP-1 inhibitory action (Type I collagen Activity Measurement kit, FITC-labeled collagen type I); conditions: Experimental Example 2; read-out: IC50 MMP1
T2 sequence (P03956 100-469): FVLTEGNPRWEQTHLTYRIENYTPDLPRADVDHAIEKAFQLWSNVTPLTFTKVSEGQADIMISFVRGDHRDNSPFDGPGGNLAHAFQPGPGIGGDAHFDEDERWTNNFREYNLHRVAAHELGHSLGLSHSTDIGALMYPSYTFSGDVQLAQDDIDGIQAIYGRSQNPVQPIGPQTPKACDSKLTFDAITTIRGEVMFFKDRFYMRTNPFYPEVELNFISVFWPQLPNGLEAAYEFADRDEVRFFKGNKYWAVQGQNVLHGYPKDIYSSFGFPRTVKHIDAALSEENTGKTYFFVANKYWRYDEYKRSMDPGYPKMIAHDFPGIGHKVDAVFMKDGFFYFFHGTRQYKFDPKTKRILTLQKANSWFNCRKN

[3] = biological target: T3, Recombinant Human MMP-13 (Homo sapiens, UniProt P45452); assay: MMP-13 inhibitory activity (MMP-13 specific fluorescent substrate with quencher); conditions: Experimental Example 3; read-out: IC50 MMP13
T3 construct: purchased R&D systems 511-MM
Summary of the method: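 Recombinant human MMP-13 with test compound, reaction started with quenched fluorogenic peptide 7-MCA-Pro-CHA-Gly-NVal-His-Ala-DPA in Tris-HCl buffer, 1 h at 25 °C, stopped with acetic acid. Fluorescence at Ex 325/Em 405 nm; % inhibition versus enzyme-free and inhibitor-free wells, reported as IC50 (μM).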

Row | IC50 [1] [µM] | IC50 [2] [µM] | IC50 [3] [µM] | SMILES
1 | < 0.1 | < 0.1 | < 0.1 | C=C(Cl)c1cnn(-c2ccc(S(=O)(=O)N[C@@]3(C(=O)O)C(C)[C@@H]3c3ccccc3)s2)c1 (stereo partly drawn) [Example 2-545]
2 | < 0.1 | < 0.1 | < 0.1 | CC(=O)c1cnn(-c2ccc(S(=O)(=O)N[C@@]3(C(=O)O)C(C)[C@@H]3c3ccccc3)s2)c1 (stereo partly drawn) [Example 2-546]
3 | < 0.1 | < 0.1 | < 0.1 | CC(O)c1cnn(-c2ccc(S(=O)(=O)N[C@@]3(C(=O)O)C(C)[C@@H]3c3ccccc3)s2)c1 (stereo partly drawn) [Example 2-547]
4 | ≥ 1 | ≥ 1 | ≥ 1 | CC1[C@H](c2ccccc2)[C@]1(NS(=O)(=O)N1Cc2ccc(O)cc2C1)C(=O)O (stereo partly drawn) [Example 2-548]
5 | ≥ 1 | ≥ 1 | ≥ 1 | CC1[C@H](c2ccccc2)[C@]1(NS(=O)(=O)N1CCC(OCc2cccc(Cl)c2)C1)C(=O)O (stereo partly drawn) [Example 2-549]
6 | ≥ 1 | ≥ 1 | ≥ 1 | CC1[C@H](c2ccccc2)[C@]1(NS(=O)(=O)N1CCC(OCc2ccc(Cl)cc2)C1)C(=O)O (stereo partly drawn) [Example 2-550]
7 | ≥ 1 | ≥ 1 | ≥ 1 | CC1[C@H](c2ccccc2)[C@]1(NS(=O)(=O)N1CCC(OCc2cc(Cl)ccc2Cl)C1)C(=O)O (stereo partly drawn) [Example 2-551]
8 | ≥ 1 | ≥ 1 | < 1 | CC(C)Nc1ccc2c(c1)CN(S(=O)(=O)N[C@@]1(C(=O)O)C(C)[C@@H]1c1ccccc1)C2 (stereo partly drawn) [Example 2-552]
9 | ≥ 1 | ≥ 1 | ≥ 1 | CC1[C@H](c2ccccc2)[C@]1(NS(=O)(=O)N1CCC(OCc2ccc(Cl)cc2Cl)C1)C(=O)O (stereo partly drawn) [Example 2-553]
10 | ≥ 1 | ≥ 1 | < 1 | O=C(O)[C@]1(NS(=O)(=O)c2ccc(-n3cc(Cl)cn3)nc2)C[C@@H]1c1ccccc1 [Example 2-554]
11 | < 1 | ≥ 1 | < 1 | CCOC(=O)c1cc(-c2ccc(S(=O)(=O)N[C@@]3(C(=O)O)C(C)[C@@H]3c3ccccc3)s2)no1 (stereo partly drawn) [Example 2-555]
12 | ≥ 1 | ≥ 1 | < 0.1 | CC1[C@H](c2ccccc2)[C@]1(NS(=O)(=O)c1ccc(-n2cc(C(F)(F)F)cn2)nc1)C(=O)O (stereo partly drawn) [Example 2-556]
13 | < 1 | ≥ 1 | < 0.1 | CC1[C@H](c2ccccc2)[C@]1(NS(=O)(=O)c1ccc(-n2cc(Cl)cn2)nc1)C(=O)O (stereo partly drawn) [Example 2-557]
14 | ≥ 1 | ≥ 1 | < 1 | O=C(O)[C@]1(NS(=O)(=O)c2ccc(-n3cc(C(F)(F)F)cn3)nc2)C[C@@H]1c1ccccc1 [Example 2-558]
15 | < 0.1 | ≥ 1 | < 1 | COCCCC1(c2ccccc2)CC1(NS(=O)(=O)c1ccc(-c2ccc(Cl)cc2)s1)C(=O)O (stereo not drawn) [Example 2-559]
16 | < 1 | ≥ 1 | < 1 | COCCCC1(c2ccccc2)CC1(NS(=O)(=O)c1ccc(-n2cc(Cl)cn2)s1)C(=O)O (stereo not drawn) [Example 2-560]
17 | < 0.1 | < 0.1 | < 0.1 | CC1[C@H](c2ccccc2)[C@]1(NS(=O)(=O)c1ccc(-n2cc(CO)cn2)s1)C(=O)O (stereo partly drawn) [Example 2-561]
18 | ≥ 1 | ≥ 1 | ≥ 1 | C[C@]1(c2ccccc2)C[C@@]1(NS(=O)(=O)c1ccc(/C=C/C(F)(F)F)s1)C(=O)O [Example 2-562]
19 | ≥ 1 | ≥ 1 | ≥ 1 | C[C@]1(c2ccccc2)C[C@@]1(NS(=O)(=O)c1ccc(/C=C\C(F)(F)F)s1)C(=O)O [Example 2-563]

Row | IC50 [1] [µM] | IC50 [2] [µM] | IC50 [3] [µM] | SMILES
20 | < 0.1 | ≥ 1 | < 0.1 | C[C@]1(c2ccccc2)C[C@@]1(NS(=O)(=O)c1ccc(-c2ccc(Cl)c(CO)c2)s1)C(=O)O [Example 2-564]
21 | < 0.1 | < 1 | < 0.1 | CC1[C@H](c2ccccc2)[C@]1(NS(=O)(=O)c1ccc(-c2ccc(Cl)c(CO)c2)s1)C(=O)O (stereo partly drawn) [Example 2-565]
22 | < 1 | ≥ 1 | ≥ 1 | C[C@]1(c2ccccc2)C[C@@]1(NS(=O)(=O)c1ccc(-c2ccc(Cl)cc2Cl)s1)C(=O)O [Example 2-566]
23 | < 0.1 | ≥ 1 | < 1 | C[C@]1(c2ccccc2)C[C@@]1(NS(=O)(=O)c1ccc(-c2ccc(C#N)cc2)s1)C(=O)O [Example 2-567]
24 | < 0.1 | < 1 | < 0.1 | C[C@]1(c2ccccc2)C[C@@]1(NS(=O)(=O)c1ccc2c(c1)Cc1cc(Cl)ccc1-2)C(=O)O [Example 2-568]
25 | < 0.1 | < 1 | < 0.1 | CC1[C@H](c2ccccc2)[C@]1(NS(=O)(=O)c1ccc2c(c1)Cc1cc(Cl)ccc1-2)C(=O)O (stereo partly drawn) [Example 2-569]
26 | < 1 | ≥ 1 | < 0.1 | CC1[C@H](c2ccccc2)[C@]1(NS(=O)(=O)c1ccc(-c2cn3ccccc3n2)s1)C(=O)O (stereo partly drawn) [Example 2-570]
27 | ≥ 1 | ≥ 1 | < 1 | CC1[C@H](c2ccccc2)[C@]1(NS(=O)(=O)c1ccc(-c2cn3cccnc3n2)s1)C(=O)O (stereo partly drawn) [Example 2-571]
28 | < 0.1 | ≥ 1 | < 0.1 | C[C@]1(c2ccccc2)C[C@@]1(NS(=O)(=O)c1ccc(-c2ccc(C(F)(F)F)cc2)s1)C(=O)O [Example 2-572]
29 | < 1 | ≥ 1 | < 0.1 | CC(=O)c1ccc(-c2ccc(S(=O)(=O)N[C@@]3(C(=O)O)C[C@]3(C)c3ccccc3)s2)cc1 [Example 2-573]
30 | < 1 | < 1 | < 0.1 | C[C@]1(c2ccccc2)C[C@@]1(NS(=O)(=O)c1ccc(-c2ccc(CO)cc2)s1)C(=O)O [Example 2-574]
31 | < 0.1 | < 1 | < 0.1 | CC1[C@H](c2ccccc2)[C@]1(NS(=O)(=O)c1ccc(-n2cc(C(F)(F)F)cn2)s1)C(=O)O (stereo partly drawn) [Example 2-577]
32 | < 1 | ≥ 1 | < 0.1 | CC1[C@H](c2ccccc2)[C@]1(NS(=O)(=O)c1ccc(-c2cc(C(N)=O)on2)s1)C(=O)O (stereo partly drawn) [Example 2-578]
33 | < 0.1 | < 1 | < 0.1 | CC1[C@H](c2ccccc2)[C@]1(NS(=O)(=O)c1ccc(-c2cc(C#N)on2)s1)C(=O)O (stereo partly drawn) [Example 2-579]
34 | < 1 | ≥ 1 | < 0.1 | CC1[C@H](c2ccccc2)[C@]1(NS(=O)(=O)c1ccc(-n2cc(C#N)cn2)s1)C(=O)O (stereo partly drawn) [Example 2-580]
35 | < 0.1 | ≥ 1 | < 1 | C[C@]1(c2ccccc2)C[C@@]1(NS(=O)(=O)c1ccc(-c2ccc(F)c(F)c2)s1)C(=O)O [Example 2-581]
36 | < 1 | ≥ 1 | < 1 | C[C@]1(c2ccccc2)C[C@@]1(NS(=O)(=O)c1ccc(-c2ccc(O)cc2)s1)C(=O)O [Example 2-582]
37 | < 1 | ≥ 1 | < 0.1 | CC1[C@H](c2ccccc2)[C@]1(NS(=O)(=O)c1ccc(-c2nc3ccccc3[nH]2)s1)C(=O)O (stereo partly drawn) [Example 2-584]
